Laboratory results reported in patent US20100298141A1, “SUBSTITUTED PYRIDINE N-OXIDE HERBICIDES” (E. I. DU PONT DE NEMOURS AND COMPANY, priority 2007, published 2010).

Columns and labels:
Experiment in all cases: Test F preemergence test
bermudagrass = format: in vivo, Cynodon dactylon; conditions: scale 0 to 100; for Bermudagrass plant response rating: 62 g ai/ha
Description: (§1) Seeds of plant species selected from bermudagrass (Cynodon dactylon), Surinam grass (Brachiaria decumbens), large crabgrass (Digitaria sanguinalis), green foxtail (Setaria viridis), goosegrass (Eleusine indica), johnsongrass (Sorghum halepense), kochia (Kochia scoparia), pitted morningglory (Ipomoea lacunosa), purple nutsedge (Cyperus rotundus), common ragweed (Ambrosia elation), mustard (Brassica nigra), guineagrass (Panicum maximum), […] (Paspalum dilatatum), barnyardgrass (Echinochloa crus-galli), southern sandbur (Cenchrus echinatus), common sowthistle (Sonchus oleraceous), prickly […] spinosa), Italian ryegrass (Lolium multiflorum), common purslane (Portulaca oleracea), broadleaf signalgrass (Brachiaria platyphylla), common groundsel (Senecio vulgaris), common chickweed (Stellaria media), Virginia dayflower (Commelina virginica), annual bluegrass (Poa annua), naked crabgrass (Digitaria nuda), […] cochinchinensis), quackgrass (Elytrigia repens), Canada horseweed (Conyza canadensis), field bindweed (Convolvulus arvensis), […] (Bidens bipinnata), common mallow (Malva sylvestris), Russian thistle (Salsola kali), and sugarcane (Saccharum officinarum) were planted and treated preemergence with test chemicals formulated in a non-phytotoxic solvent mixture which included a surfactant. At a different time, sugarcane was treated with postemergence applications of some of the test chemicals formulated in the same manner. Plants were approximately 3- to 4-leaf stage for the postemergence treatments. Treated plants and controls were maintained in a greenhouse for 14 to 21 days, after which time all species were compared to controls and visually evaluated. […] A dash (-) response means no test result.

Surinam grass = format: in vivo, Brachiaria decumbens; conditions: scale 0 to 100; for Surinam Grass plant response rating: 62 g ai/ha
Description: as §1

goosegrass = format: in vivo, Eleusine indica; conditions: scale 0 to 100; for Goosegrass plant response rating: 62 g ai/ha
Description: as §1

johnsongrass = format: in vivo, Sorghum halepense; conditions: scale 0 to 100; for Johnsongrass plant response rating: 62 g ai/ha
Description: as §1

pitted morningglory = format: in vivo, Ipomoea lacunosa; conditions: scale 0 to 100; for Morningglory plant response rating: 62 g ai/ha
Description: as §1

purple nutsedge = format: in vivo, Cyperus rotundus; conditions: scale 0 to 100; for Purple Nutsedge plant response rating: 62 g ai/ha
Description: as §1

guineagrass = format: in vivo, Panicum maximum; conditions: scale 0 to 100; for Guineagrass plant response rating: 62 g ai/ha
Description: as §1

southern sandbur = format: in vivo, Cenchrus echinatus; conditions: scale 0 to 100; for Sandbur plant response rating: 62 g ai/ha
Description: as §1

prickly sida = format: in vivo, Sida spinosa; conditions: scale 0 to 100; for Prickly Sida plant response rating: 62 g ai/ha
Description: as §1

Italian ryegrass = format: in vivo, Lolium multiflorum; conditions: scale 0 to 100; for Ryegrass, Italian plant response rating: 62 g ai/ha
Description: as §1

common purslane = format: in vivo, Portulaca oleracea; conditions: scale 0 to 100; for Purslane plant response rating: 62 g ai/ha
Description: as §1

broadleaf signalgrass = format: in vivo, Brachiaria platyphylla; conditions: scale 0 to 100; for Signalgrass plant response rating: 62 g ai/ha
Description: as §1

naked crabgrass = format: in vivo, Digitaria nuda; conditions: scale 0 to 100; for Crabgrass, Naked plant response rating: 62 g ai/ha
Description: as §1

itchgrass = format: in vivo, Rottboellia cochinchinensis; conditions: scale 0 to 100; for Itchgrass plant response rating: 62 g ai/ha
Description: as §1

field bindweed = format: in vivo, Convolvulus arvensis; conditions: scale 0 to 100; for Field Bindweed plant response rating: 62 g ai/ha
Description: as §1

## Cc1cc[n+]([O-])c([S+]([O-])Cc2c(C(F)(F)F)nn(C)c2OC(F)F)c1 (stereo not shown) [Compound 1]
bermudagrass; 8 g ai/ha, preemergence
  Plant response rating, Bermudagrass: 0
bermudagrass; Preemergence
  Bermudagrass plant response rating: 80
bermudagrass; Preemergence, 16 g ai/ha
  Plant response rating, Bermudagrass: 40
bermudagrass; Preemergence, 31 g ai/ha
  Plant response rating, Bermudagrass: 40
Surinam grass; 8 g ai/ha, preemergence
  Plant response rating, Surinam Grass: 0
Surinam grass; 16 g ai/ha, preemergence
  Plant response rating, Surinam Grass: 0
Surinam grass; Preemergence
  Surinam Grass plant response rating: 90
Surinam grass; Preemergence, 31 g ai/ha
  Plant response rating, Surinam Grass: 0
goosegrass; 8 g ai/ha, preemergence
  Plant response rating, Goosegrass: 25
goosegrass; Preemergence
  Goosegrass plant response rating: 95
goosegrass; Preemergence, 16 g ai/ha
  Plant response rating, Goosegrass: 70
goosegrass; Preemergence, 31 g ai/ha
  Plant response rating, Goosegrass: 80
johnsongrass; 8 g ai/ha, preemergence
  Plant response rating, Johnsongrass: 35
johnsongrass; Preemergence
  Johnsongrass plant response rating: 90
johnsongrass; Preemergence, 16 g ai/ha
  Plant response rating, Johnsongrass: 70
johnsongrass; Preemergence, 31 g ai/ha
  Plant response rating, Johnsongrass: 90
Pitted morningglory; 8 g ai/ha, preemergence
  Plant response rating, Morningglory: 0
Pitted morningglory; Preemergence
  Morningglory plant response rating: 95
Pitted morningglory; Preemergence, 16 g ai/ha
  Plant response rating, Morningglory: 10
Pitted morningglory; Preemergence, 31 g ai/ha
  Plant response rating, Morningglory: 75
Purple nutsedge; 8 g ai/ha, preemergence
  Plant response rating, Purple Nutsedge: 0
Purple nutsedge; Preemergence
  Purple Nutsedge plant response rating: 60
Purple nutsedge; Preemergence, 16 g ai/ha
  Plant response rating, Purple Nutsedge: 0
Purple nutsedge; Preemergence, 31 g ai/ha
  Plant response rating, Purple Nutsedge: 60
guineagrass; 8 g ai/ha, preemergence
  Plant response rating, Guineagrass: 65
guineagrass; Preemergence
  Guineagrass plant response rating: 100
guineagrass; Preemergence, 16 g ai/ha
  Plant response rating, Guineagrass: 80
guineagrass; Preemergence, 31 g ai/ha
  Plant response rating, Guineagrass: 80
Southern sandbur; 8 g ai/ha, preemergence
  Plant response rating, Sandbur: 0
Southern sandbur; 16 g ai/ha, preemergence
  Plant response rating, Sandbur: 30
Southern sandbur; Preemergence
  Sandbur plant response rating: 80
Southern sandbur; Preemergence, 31 g ai/ha
  Plant response rating, Sandbur: 60
Prickly sida; 8 g ai/ha, preemergence
  Plant response rating, Prickly Sida: 0
Prickly sida; Preemergence
  Prickly Sida plant response rating: 80
Prickly sida; Preemergence, 16 g ai/ha
  Plant response rating, Prickly Sida: 20
Prickly sida; Preemergence, 31 g ai/ha
  Plant response rating, Prickly Sida: 60
Italian ryegrass; 8 g ai/ha, preemergence
  Plant response rating, Ryegrass, Italian: 0
Italian ryegrass; Preemergence
  Ryegrass, Italian plant response rating: 90
Italian ryegrass; Preemergence, 16 g ai/ha
  Plant response rating, Ryegrass, Italian: 0
Italian ryegrass; Preemergence, 31 g ai/ha
  Plant response rating, Ryegrass, Italian: 60
Common purslane; 8 g ai/ha, preemergence
  Plant response rating, Purslane: 0
Common purslane; Preemergence
  Purslane plant response rating: 80
Common purslane; Preemergence, 16 g ai/ha
  Plant response rating, Purslane: 35
Common purslane; Preemergence, 31 g ai/ha
  Plant response rating, Purslane: 60
Broadleaf signalgrass; 8 g ai/ha, preemergence
  Plant response rating, Signalgrass: 0
Broadleaf signalgrass; 16 g ai/ha, preemergence
  Plant response rating, Signalgrass: 0
Broadleaf signalgrass; Preemergence
  Signalgrass plant response rating: 50
Broadleaf signalgrass; Preemergence, 31 g ai/ha
  Plant response rating, Signalgrass: 25
Naked crabgrass; 8 g ai/ha, preemergence
  Plant response rating, Crabgrass, Naked: 0
Naked crabgrass; Preemergence
  Crabgrass, Naked plant response rating: 100
Naked crabgrass; Preemergence, 16 g ai/ha
  Plant response rating, Crabgrass, Naked: 15
Naked crabgrass; Preemergence, 31 g ai/ha
  Plant response rating, Crabgrass, Naked: 90
itchgrass; 8 g ai/ha, preemergence
  Plant response rating, Itchgrass: 0
itchgrass; Preemergence
  Itchgrass plant response rating: 90
itchgrass; Preemergence, 16 g ai/ha
  Plant response rating, Itchgrass: 60
itchgrass; Preemergence, 31 g ai/ha
  Plant response rating, Itchgrass: 70
Field bindweed; 8 g ai/ha, preemergence
  Plant response rating, Field Bindweed: 0
Field bindweed; Preemergence
  Field Bindweed plant response rating: 75
Field bindweed; Preemergence, 16 g ai/ha
  Plant response rating, Field Bindweed: 0
Field bindweed; Preemergence, 31 g ai/ha
  Plant response rating, Field Bindweed: 50

## Cc1cc[n+]([O-])c(S(=O)(=O)Cc2c(C(F)(F)F)nn(C)c2OC(F)F)c1 [Compound 2]
bermudagrass; 8 g ai/ha, preemergence
  Plant response rating, Bermudagrass: 0
bermudagrass; Preemergence
  Bermudagrass plant response rating: 90
bermudagrass; Preemergence, 16 g ai/ha
  Plant response rating, Bermudagrass: 25
bermudagrass; Preemergence, 31 g ai/ha
  Plant response rating, Bermudagrass: 90
Surinam grass; 8 g ai/ha, preemergence
  Plant response rating, Surinam Grass: 0
Surinam grass; 16 g ai/ha, preemergence
  Plant response rating, Surinam Grass: 0
Surinam grass; Preemergence
  Surinam Grass plant response rating: 100
Surinam grass; Preemergence, 31 g ai/ha
  Plant response rating, Surinam Grass: 60
goosegrass; 8 g ai/ha, preemergence
  Plant response rating, Goosegrass: 35
goosegrass; Preemergence
  Goosegrass plant response rating: 98
goosegrass; Preemergence, 16 g ai/ha
  Plant response rating, Goosegrass: 70
goosegrass; Preemergence, 31 g ai/ha
  Plant response rating, Goosegrass: 90
johnsongrass; Preemergence
  Johnsongrass plant response rating: 85
johnsongrass; Preemergence, 31 g ai/ha
  Plant response rating, Johnsongrass: 70
Pitted morningglory; 8 g ai/ha, preemergence
  Plant response rating, Morningglory: 0
Pitted morningglory; Preemergence
  Morningglory plant response rating: 60
Pitted morningglory; Preemergence, 16 g ai/ha
  Plant response rating, Morningglory: 0
Pitted morningglory; Preemergence, 31 g ai/ha
  Plant response rating, Morningglory: 15
Purple nutsedge; 8 g ai/ha, preemergence
  Plant response rating, Purple Nutsedge: 0
Purple nutsedge; Preemergence
  Purple Nutsedge plant response rating: 100
Purple nutsedge; Preemergence, 16 g ai/ha
  Plant response rating, Purple Nutsedge: 15
Purple nutsedge; Preemergence, 31 g ai/ha
  Plant response rating, Purple Nutsedge: 70
guineagrass; 8 g ai/ha, preemergence
  Plant response rating, Guineagrass: 0
guineagrass; Preemergence
  Guineagrass plant response rating: 100
guineagrass; Preemergence, 16 g ai/ha
  Plant response rating, Guineagrass: 65
guineagrass; Preemergence, 31 g ai/ha
  Plant response rating, Guineagrass: 90
Southern sandbur; 8 g ai/ha, preemergence
  Plant response rating, Sandbur: 0
Southern sandbur; 16 g ai/ha, preemergence
  Plant response rating, Sandbur: 0
Southern sandbur; Preemergence
  Sandbur plant response rating: 100
Southern sandbur; Preemergence, 31 g ai/ha
  Plant response rating, Sandbur: 30
Prickly sida; 8 g ai/ha, preemergence
  Plant response rating, Prickly Sida: 0
Prickly sida; Preemergence
  Prickly Sida plant response rating: 80
Prickly sida; Preemergence, 16 g ai/ha
  Plant response rating, Prickly Sida: 0
Prickly sida; Preemergence, 31 g ai/ha
  Plant response rating, Prickly Sida: 40
Italian ryegrass; 8 g ai/ha, preemergence
  Plant response rating, Ryegrass, Italian: 0
Italian ryegrass; Preemergence
  Ryegrass, Italian plant response rating: 35
Italian ryegrass; Preemergence, 16 g ai/ha
  Plant response rating, Ryegrass, Italian: 0
Italian ryegrass; Preemergence, 31 g ai/ha
  Plant response rating, Ryegrass, Italian: 20
Common purslane; 8 g ai/ha, preemergence
  Plant response rating, Purslane: 0
Common purslane; Preemergence
  Purslane plant response rating: 50
Common purslane; Preemergence, 16 g ai/ha
  Plant response rating, Purslane: 0
Common purslane; Preemergence, 31 g ai/ha
  Plant response rating, Purslane: 40
Broadleaf signalgrass; 8 g ai/ha, preemergence
  Plant response rating, Signalgrass: 0
Broadleaf signalgrass; 16 g ai/ha, preemergence
  Plant response rating, Signalgrass: 0
Broadleaf signalgrass; Preemergence
  Signalgrass plant response rating: 50
Broadleaf signalgrass; Preemergence, 31 g ai/ha
  Plant response rating, Signalgrass: 0
Naked crabgrass; 8 g ai/ha, preemergence
  Plant response rating, Crabgrass, Naked: 0
Naked crabgrass; Preemergence
  Crabgrass, Naked plant response rating: 80
Naked crabgrass; Preemergence, 16 g ai/ha
  Plant response rating, Crabgrass, Naked: 35
Naked crabgrass; Preemergence, 31 g ai/ha
  Plant response rating, Crabgrass, Naked: 65
itchgrass; 8 g ai/ha, preemergence
  Plant response rating, Itchgrass: 0
itchgrass; Preemergence
  Itchgrass plant response rating: 70
itchgrass; Preemergence, 16 g ai/ha
  Plant response rating, Itchgrass: 20
itchgrass; Preemergence, 31 g ai/ha
  Plant response rating, Itchgrass: 60
Field bindweed; 8 g ai/ha, preemergence
  Plant response rating, Field Bindweed: 0
Field bindweed; Preemergence
  Field Bindweed plant response rating: 0
Field bindweed; Preemergence, 16 g ai/ha
  Plant response rating, Field Bindweed: 0
Field bindweed; Preemergence, 31 g ai/ha
  Plant response rating, Field Bindweed: 0
